Assay results taken from patent US20230079819A1, “COMPOUNDS AND USES THEREOF” (Foghorn Therapeutics Inc., priority 2019, published 2023).
Values belong to the compound of their own block, whether it stands above or below them.

Legend:
[1] = target: T1, BRM (Homo sapiens, UniProt P51531); experiment: ATPase catalytic activity of BRM, ADP-Glo in vitro biochemical assay; details: ATPase catalytic activity, 30 nM BRM, 400 μM ATP, read-out: BRM IP50 (μM)*
T1 construct: made in house; host or cells: High Five insect cells

[2] = target: T2, BRG-1 (Homo sapiens, UniProt P51532); experiment: ATPase catalytic activity of BRG-1, ADP-Glo in vitro biochemical assay; details: ATPase catalytic activity, 30 nM BRG-1, 400 μM ATP, read-out: BRG1 IP50 (μM)*
T2 construct: made in house; host or cells: High Five insect cells
T2 sequence (P51532 whole entry): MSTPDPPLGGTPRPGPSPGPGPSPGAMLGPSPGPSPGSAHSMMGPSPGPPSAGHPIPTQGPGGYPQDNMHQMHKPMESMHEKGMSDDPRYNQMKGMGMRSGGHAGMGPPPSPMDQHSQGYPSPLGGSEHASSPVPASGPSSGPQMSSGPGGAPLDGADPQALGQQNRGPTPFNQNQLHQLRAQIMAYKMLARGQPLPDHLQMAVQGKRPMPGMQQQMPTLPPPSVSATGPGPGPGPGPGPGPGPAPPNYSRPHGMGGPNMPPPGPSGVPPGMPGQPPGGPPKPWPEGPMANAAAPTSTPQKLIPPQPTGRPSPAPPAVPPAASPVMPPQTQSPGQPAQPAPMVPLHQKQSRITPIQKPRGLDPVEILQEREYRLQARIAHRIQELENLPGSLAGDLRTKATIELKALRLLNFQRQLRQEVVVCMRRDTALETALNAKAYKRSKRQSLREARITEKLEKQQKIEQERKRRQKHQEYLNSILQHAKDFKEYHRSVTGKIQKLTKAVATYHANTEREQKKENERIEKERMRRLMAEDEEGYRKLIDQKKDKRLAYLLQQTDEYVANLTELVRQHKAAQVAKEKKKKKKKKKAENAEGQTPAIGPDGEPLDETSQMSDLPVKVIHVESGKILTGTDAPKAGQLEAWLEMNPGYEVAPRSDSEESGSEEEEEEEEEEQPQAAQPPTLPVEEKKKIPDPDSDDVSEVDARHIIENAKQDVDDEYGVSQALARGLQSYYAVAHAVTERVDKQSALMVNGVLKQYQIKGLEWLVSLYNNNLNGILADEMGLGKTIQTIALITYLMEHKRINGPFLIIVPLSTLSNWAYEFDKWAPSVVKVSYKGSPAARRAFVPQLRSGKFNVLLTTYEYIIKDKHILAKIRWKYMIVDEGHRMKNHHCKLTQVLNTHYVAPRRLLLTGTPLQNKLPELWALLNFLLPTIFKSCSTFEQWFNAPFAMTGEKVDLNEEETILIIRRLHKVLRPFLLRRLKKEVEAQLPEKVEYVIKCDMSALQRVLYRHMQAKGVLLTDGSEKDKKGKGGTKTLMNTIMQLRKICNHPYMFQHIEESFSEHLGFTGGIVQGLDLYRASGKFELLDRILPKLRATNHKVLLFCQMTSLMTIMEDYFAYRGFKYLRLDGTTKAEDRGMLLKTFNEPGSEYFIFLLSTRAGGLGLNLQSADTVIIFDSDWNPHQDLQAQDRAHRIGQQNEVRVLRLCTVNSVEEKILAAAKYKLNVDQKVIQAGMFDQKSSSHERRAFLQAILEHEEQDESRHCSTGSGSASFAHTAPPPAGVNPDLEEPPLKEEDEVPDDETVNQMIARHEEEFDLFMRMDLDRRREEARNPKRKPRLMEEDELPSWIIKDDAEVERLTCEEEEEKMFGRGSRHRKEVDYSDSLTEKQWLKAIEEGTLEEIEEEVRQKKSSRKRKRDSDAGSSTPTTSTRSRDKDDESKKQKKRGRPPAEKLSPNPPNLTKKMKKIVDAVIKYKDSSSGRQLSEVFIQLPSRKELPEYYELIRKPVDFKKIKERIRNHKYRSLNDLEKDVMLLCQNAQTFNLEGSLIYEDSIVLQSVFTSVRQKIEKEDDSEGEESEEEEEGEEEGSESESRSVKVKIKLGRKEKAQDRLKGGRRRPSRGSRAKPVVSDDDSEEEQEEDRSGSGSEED

T1 sequence (P51531 whole entry): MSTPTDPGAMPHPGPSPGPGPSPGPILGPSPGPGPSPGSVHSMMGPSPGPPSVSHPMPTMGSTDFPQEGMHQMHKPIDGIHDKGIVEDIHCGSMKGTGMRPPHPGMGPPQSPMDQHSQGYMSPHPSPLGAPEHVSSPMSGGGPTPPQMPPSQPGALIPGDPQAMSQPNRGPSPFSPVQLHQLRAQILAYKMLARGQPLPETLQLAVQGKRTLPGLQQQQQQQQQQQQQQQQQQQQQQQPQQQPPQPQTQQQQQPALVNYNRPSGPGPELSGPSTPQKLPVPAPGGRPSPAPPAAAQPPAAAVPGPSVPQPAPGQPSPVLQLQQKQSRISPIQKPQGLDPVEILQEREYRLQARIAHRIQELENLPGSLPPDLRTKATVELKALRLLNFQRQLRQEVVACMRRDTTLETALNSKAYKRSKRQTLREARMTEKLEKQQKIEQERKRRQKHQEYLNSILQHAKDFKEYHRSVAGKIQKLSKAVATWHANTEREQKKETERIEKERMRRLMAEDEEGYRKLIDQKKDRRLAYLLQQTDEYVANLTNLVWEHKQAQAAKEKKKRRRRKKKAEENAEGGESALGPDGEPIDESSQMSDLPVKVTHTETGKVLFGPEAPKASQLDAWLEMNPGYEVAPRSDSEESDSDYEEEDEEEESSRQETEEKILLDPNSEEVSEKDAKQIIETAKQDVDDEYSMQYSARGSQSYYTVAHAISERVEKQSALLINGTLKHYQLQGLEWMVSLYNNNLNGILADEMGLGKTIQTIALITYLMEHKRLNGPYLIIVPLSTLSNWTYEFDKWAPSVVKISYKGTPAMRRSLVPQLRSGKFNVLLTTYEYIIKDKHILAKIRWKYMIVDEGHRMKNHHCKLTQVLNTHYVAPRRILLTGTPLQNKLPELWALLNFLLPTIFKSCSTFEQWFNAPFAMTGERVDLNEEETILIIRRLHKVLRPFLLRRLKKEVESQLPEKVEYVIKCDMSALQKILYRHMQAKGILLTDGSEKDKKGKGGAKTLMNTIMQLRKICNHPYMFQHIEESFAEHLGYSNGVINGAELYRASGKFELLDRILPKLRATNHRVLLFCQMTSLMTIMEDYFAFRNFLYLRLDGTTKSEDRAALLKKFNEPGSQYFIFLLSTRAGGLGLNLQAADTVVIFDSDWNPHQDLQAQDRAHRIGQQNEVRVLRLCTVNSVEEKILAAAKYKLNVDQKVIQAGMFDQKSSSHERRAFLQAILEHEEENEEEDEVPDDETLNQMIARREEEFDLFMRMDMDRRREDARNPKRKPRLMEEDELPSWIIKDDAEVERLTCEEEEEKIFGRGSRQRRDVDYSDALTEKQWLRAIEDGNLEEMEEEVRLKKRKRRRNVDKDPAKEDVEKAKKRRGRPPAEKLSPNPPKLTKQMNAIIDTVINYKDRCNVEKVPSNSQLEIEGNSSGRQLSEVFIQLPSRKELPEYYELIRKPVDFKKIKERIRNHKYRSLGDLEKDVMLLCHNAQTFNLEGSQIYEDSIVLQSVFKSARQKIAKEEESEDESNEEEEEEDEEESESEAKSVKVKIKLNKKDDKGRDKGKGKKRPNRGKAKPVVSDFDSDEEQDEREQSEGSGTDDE

SMILES: Cc1cc(-c2cccc(-c3csc(NC(=O)CNC(=O)c4ccn(C(C)(C)C)c4)n3)c2)ncn1 [Compound 22, 1-(tert-butyl)-N-(2-((4-(3-(6-methylpyrimidin-4-yl)phenyl)thiazol-2-yl)amino)-2-oxoethyl)-1H-pyrrole-3-carboxamide]
IC50 [1]: < 0.01 µM
IC50 [2]: < 0.01 µM

SMILES: Cc1nccc(-c2cccc(-c3csc(NC(=O)CNC(=O)c4ccn(C(C)(C)C)c4)n3)c2)n1 [Compound 23, 1-(tert-butyl)-N-(2-((4-(3-(2-methylpyrimidin-4-yl)phenyl)thiazol-2-yl)amino)-2-oxoethyl)-1H-pyrrole-3-carboxamide]
IC50 [1]: < 0.01 µM
IC50 [2]: < 0.01 µM

SMILES: COC(C)(C)Cn1ccc(-c2cccc(-c3csc(NC(=O)CNC(=O)c4ccn(C(C)(C)C)c4)n3)c2)n1 [Compound 25, 1-(tert-butyl)-N-(2-((4-(3-(1-(2-methoxy-2-methylpropyl)-1H-pyrazol-3-yl)phenyl)thiazol-2-yl)amino)-2-oxoethyl)-1H-pyrrole-3-carboxamide]
IC50 [1]: > 0.01 µM
IC50 [2]: > 0.1 µM

SMILES: Cn1nc(-c2cccc(-c3csc(NC(=O)CNC(=O)c4ccn(C(C)(C)C)c4)n3)c2)cc1CO [Compound 26, 1-(tert-butyl)-N-(2-((4-(3-(5-(hydroxymethyl)-1-methyl-1H-pyrazol-3-yl)phenyl)thiazol-2-yl)amino)-2-oxoethyl)-1H-pyrrole-3-carboxamide]
IC50 [1]: > 0.01 µM
IC50 [2]: > 0.01 µM

SMILES: COCC(C)(C)n1ccc(C(=O)NCC(=O)Nc2nc(-c3cccc(-c4ccn(C)n4)c3)cs2)c1 [Compound 27, 1-(1-methoxy-2-methylpropan-2-yl)-N-(2-((4-(3-(1-methyl-1H-pyrazol-3-yl)phenyl)thiazol-2-yl)amino)-2-oxoethyl)-1H-pyrrole-3-carboxamide]
IC50 [1]: > 0.1 µM
IC50 [2]: > 1 µM

SMILES: Cn1ccc(-c2cccc(-c3csc(NC(=O)CNC(=O)c4ccn(CC(C)(C)O)c4)n3)c2)n1 [Compound 28, 1-(2-hydroxy-2-methylpropyl)-N-(2-((4-(3-(1-methyl-1H-pyrazol-3-yl)phenyl)thiazol-2-yl)amino)-2-oxoethyl)-1H-pyrrole-3-carboxamide]
IC50 [1]: > 1 µM
IC50 [2]: > 1 µM

SMILES: COC(C)(C)Cn1ccc(C(=O)NCC(=O)Nc2nc(-c3cccc(-c4ccn(C)n4)c3)cs2)c1 [Compound 29, 1-(2-methoxy-2-methylpropyl)-N-(2-((4-(3-(1-methyl-1H-pyrazol-3-yl)phenyl)thiazol-2-yl)amino)-2-oxoethyl)-1H-pyrrole-3-carboxamide]
IC50 [1]: > 1 µM
IC50 [2]: > 1 µM

SMILES: Cn1ccc(-c2cccc(-c3csc(NC(=O)CNC(=O)c4ccn(C(C)(C)CO)c4)n3)c2)n1 [Compound 30, 1-(1-hydroxy-2-methylpropan-2-yl)-N-(2-((4-(3-(1-methyl-1H-pyrazol-3-yl)phenyl)thiazol-2-yl)amino)-2-oxoethyl)-1H-pyrrole-3-carboxamide]
IC50 [1]: > 0.01 µM
IC50 [2]: > 0.01 µM

SMILES: Cn1cncc1C(=O)NCC(=O)Nc1nc(-c2cccc(C#N)c2)cs1 [Compound 31, N-(2-((4-(3-cyanophenyl)thiazol-2-yl)amino)-2-oxoethyl)-1-methyl-1H-imidazole-5-carboxamide]
IC50 [1]: > 1 µM
IC50 [2]: > 1 µM

SMILES: Cn1nccc1C(=O)NCC(=O)Nc1nc(-c2cccc(C#N)c2)cs1 [Compound 32, N-(2-((4-(3-cyanophenyl)thiazol-2-yl)amino)-2-oxoethyl)-1-methyl-1H-pyrazole-5-carboxamide]
IC50 [1]: > 1 µM
IC50 [2]: > 1 µM

SMILES: CC(C)(C#N)n1ccc(C(=O)NCC(=O)Nc2nc(-c3cccc(C#N)c3)cs2)c1 [Compound 34, N-(2-((4-(3-cyanophenyl)thiazol-2-yl)amino)-2-oxoethyl)-1-(2-cyanopropan-2-yl)-1H-pyrrole-3-carboxamide]
IC50 [1]: > 0.01 µM
IC50 [2]: > 0.1 µM

SMILES: CC(C)(C)n1ccc(C(=O)NCC(=O)Nc2nc(-c3cccc(C#N)c3)cs2)c1 [Compound 35, 1-(tert-butyl)-N-(2-((4-(3-cyanophenyl)thiazol-2-yl)amino)-2-oxoethyl)-1H-pyrrole-3-carboxamide]
IC50 [1]: > 0.1 µM
IC50 [2]: > 0.1 µM

SMILES: CC(C)(C)n1ccc(C(=O)NCC(=O)Nc2nc(-c3cccc(C#N)c3)cs2)n1 [Compound 36, 1-(tert-butyl)-N-(2-((4-(3-cyanophenyl)thiazol-2-yl)amino)-2-oxoethyl)-1H-pyrazole-3-carboxamide]
IC50 [1]: > 0.1 µM
IC50 [2]: > 0.1 µM

SMILES: CC(C)(C)n1cc(C(=O)NCC(=O)Nc2nc(-c3cccc(C#N)c3)cs2)cn1 [Compound 37, 1-(tert-butyl)-N-(2-((4-(3-cyanophenyl)thiazol-2-yl)amino)-2-oxoethyl)-1H-pyrazole-4-carboxamide]
IC50 [1]: > 1 µM
IC50 [2]: > 1 µM

SMILES: O=C(CNC(=O)c1ccn(C2CCNCC2)c1)Nc1nc(-c2cccc(-c3ccncc3)c2)cs1 [Compound 39, N-(2-oxo-2-((4-(3-(pyridin-4-yl)phenyl)thiazol-2-yl)amino)ethyl)-1-(piperidin-4-yl)-1H-pyrrole-3-carboxamide]
IC50 [1]: > 1 µM
IC50 [2]: > 1 µM

The remaining lines, values ahead:

IC50 [1]: > 0.01 µM
IC50 [2]: > 0.01 µM
SMILES: CN(C)CCN(C)c1cc(-c2cccc(-c3csc(NC(=O)CNC(=O)c4ccn(S(C)(=O)=O)c4)n3)c2)ccn1 [Compound 21, N-(2-((4-(3-(2-((2-(dimethylamino)ethyl)(methyl)amino)pyridin-4-yl)phenyl)thiazol-2-yl)amino)-2-oxoethyl)-1-(methylsulfonyl)-1H-pyrrole-3-carboxamide]

IC50 [1]: > 0.01 µM
IC50 [2]: > 0.01 µM
SMILES: CC(C)(C)n1ccc(C(=O)NCC(=O)Nc2nc(-c3cccc(-c4ccnc(CN)c4)c3)cs2)c1 [Compound 24, N-(2-((4-(3-(2-(aminomethyl)pyridin-4-yl)phenyl)thiazol-2-yl)amino)-2-oxoethyl)-1-(tert-butyl)-1H-pyrrole-3-carboxamide]

IC50 [1]: > 0.01 µM
IC50 [2]: > 0.01 µM
SMILES: CS(=O)(=O)n1ccc(C(=O)NCC(=O)Nc2nc(-c3cccc(C#N)c3)cs2)c1 [Compound 33, N-(2-((4-(3-cyanophenyl)thiazol-2-yl)amino)-2-oxoethyl)-1-(methylsulfonyl)-1H-pyrrole-3-carboxamide]

IC50 [1]: > 0.1 µM
IC50 [2]: > 0.1 µM
SMILES: NCCn1ccc(C(=O)NCC(=O)Nc2nc(-c3cccc(-c4ccncc4)c3)cs2)c1 [Compound 38, 1-(2-aminoethyl)-N-(2-oxo-2-((4-(3-(pyridin-4-yl)phenyl)thiazol-2-yl)amino)ethyl)-1H-pyrrole-3-carboxamide]

IC50 [1]: > 0.01 µM
IC50 [2]: > 0.01 µM
SMILES: NCCS(=O)(=O)n1ccc(C(=O)NCC(=O)Nc2nc(-c3cccc(-c4ccncc4)c3)cs2)c1 [Compound 40, 1-((2-aminoethyl)sulfonyl)-N-(2-oxo-2-((4-(3-(pyridin-4-yl)phenyl)thiazol-2-yl)amino)ethyl)-1H-pyrrole-3-carboxamide]

IC50 [1]: < 0.01 µM
IC50 [2]: > 0.01 µM
SMILES: CC(C)(C)n1ccc(C(=O)NCC(=O)Nc2nc(-c3cccc(-c4ccncc4)c3)cs2)c1 [Compound 41, 1-(tert-butyl)-N-(2-oxo-2-((4-(3-(pyridin-4-yl)phenyl)thiazol-2-yl)amino)ethyl)-1H-pyrrole-3-carboxamide]

IC50 [1]: > 0.01 µM
IC50 [2]: > 0.1 µM
SMILES: CC(C)(CN)n1ccc(C(=O)NCC(=O)Nc2nc(-c3cccc(-c4ccncc4)c3)cs2)c1 [Compound 42, 1-(1-amino-2-methylpropan-2-yl)-N-(2-oxo-2-((4-(3-(pyridin-4-yl)phenyl)thiazol-2-yl)amino)ethyl)-1H-pyrrole-3-carboxamide]

IC50 [1]: > 0.01 µM
IC50 [2]: > 0.01 µM
SMILES: CC(C)S(=O)(=O)n1ccc(C(=O)NCC(=O)Nc2nc(-c3cccc(-c4ccncc4)c3)cs2)c1 [Compound 43, 1-isopropylsulfonyl-N-[2-oxo-2-[[4-[3-(4-pyridyl)phenyl]thiazol-2-yl]amino]ethyl]pyrrole-3-carboxamide]

IC50 [1]: > 0.01 µM
IC50 [2]: > 0.1 µM
SMILES: CS(=O)(=O)n1cc(C(=O)NCC(=O)Nc2nc(-c3cccc(-c4ccncc4)c3)cs2)cn1 [Compound 44, 1-(methylsulfonyl)-N-(2-oxo-2-((4-(3-(pyridin-4-yl)phenyl)thiazol-2-yl)amino)ethyl)-1H-pyrazole-4-carboxamide]

IC50 [1]: < 0.01 µM
IC50 [2]: < 0.01 µM
SMILES: CS(=O)(=O)n1ccc(C(=O)NCC(=O)Nc2nc(-c3cccc(-c4ccncc4)c3)cs2)n1 [Compound 45, 1-(methylsulfonyl)-N-(2-oxo-2-((4-(3-(pyridin-4-yl)phenyl)thiazol-2-yl)amino)ethyl)-1H-pyrazole-3-carboxamide]

IC50 [1]: < 0.01 µM
IC50 [2]: < 0.01 µM
SMILES: CS(=O)(=O)n1cnc(C(=O)NCC(=O)Nc2nc(-c3cccc(-c4ccncc4)c3)cs2)c1 [Compound 46, 1-(methylsulfonyl)-N-(2-oxo-2-((4-(3-(pyridin-4-yl)phenyl)thiazol-2-yl)amino)ethyl)-1H-imidazole-4-carboxamide]

IC50 [1]: > 0.01 µM
IC50 [2]: > 0.01 µM
SMILES: CN(C)S(=O)(=O)n1ccc(C(=O)NCC(=O)Nc2nc(-c3cccc(-c4ccncc4)c3)cs2)c1 [Compound 47, 1-(N,N-dimethylsulfamoyl)-N-(2-oxo-2-((4-(3-(pyridin-4-yl)phenyl)thiazol-2-yl)amino)ethyl)-1H-pyrrole-3-carboxamide]

IC50 [1]: > 0.1 µM
IC50 [2]: > 0.1 µM
SMILES: CC(=O)n1ccc(C(=O)NCC(=O)Nc2nc(-c3cccc(-c4ccncc4)c3)cs2)c1 [Compound 50, 1-acetyl-N-(2-oxo-2-((4-(3-(pyridin-4-yl)phenyl)thiazol-2-yl)amino)ethyl)-1H-pyrrole-3-carboxamide]

IC50 [1]: < 0.01 µM
IC50 [2]: < 0.01 µM
SMILES: CS(=O)(=O)n1ccc(C(=O)NCC(=O)Nc2nc(-c3cccc(-c4cccc(CN)c4)c3)cs2)c1 [Compound 53, N-(2-((4-(3′-(aminomethyl)-[1,1′-biphenyl]-3-yl)thiazol-2-yl)amino)-2-oxoethyl)-1-(methylsulfonyl)-1H-pyrrole-3-carboxamide]
